Earlier results in US20220378706A1, “PHARMACEUTICAL COMPOSITION COMPRISING PDE9 INHIBITOR” (Eisai R&D Management Co., Ltd., priority 2017, published 2022).

System: CSF cGMP
Conditions: healthy subjects, 40 mg; cited from earlier work

C[C@@H]1CN(Cc2ncccn2)C[C@H]1c1nc2c(cnn2C2CCOCC2)c(=O)[nH]1 [PF 04447943]
CSF cGMP elevation: CSF cGMP elevation was demonstrated
